Among the data in patent US10208059B2, “Heterocyclic modulators of HIF activity for treatment of disease” (Board of Regents, University of Texas System, priority 2012, dated 2019) are IC50 values, retold here.

This assay concerns 293T-HRE-GFP-luc cells. The assay is described as follows: Cell-based reporter assay for IC50 determinations. To be noted: hypoxia 6 hrs (1% O2), luminescence, read-out: IC50 Classification. Summed up: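 IC50 comes from a four-parameter logistic fit of luminescence from HRE-GFP-luc 293T cells. Compounds (1:3 series, 1:50 medium dilution) were preincubated 30 min under normoxia, followed by 6 h at 1% O2, 5% CO2, 37 °C, before Steadylite luciferase detection.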
(In general: In a reporter assay the amount or activity of a reporter protein is the signal.)

Broadly, the IC50 is the midpoint of a concentration-inhibition curve. Take `COc1ccc(Cn2nc(-c3nc(-c4ccc(OC(F)(F)F)cc4)no3)nc2C)cc1C(F)(F)F` [Example 112, 5-(1-(4-methoxy-3-(trifluoromethyl)benzyl)-5-methyl-1H-1,2,4-triazol-3-yl)-3-(4-(trifluoromethoxy)phenyl)-1,2,4-oxadiazole]: the IC50 lay within 1000 to 10000 nM.

For the compound `Cc1nc(-c2nc(-c3ccc(OC(F)(F)F)cc3)no2)nn1Cc1ccc2ccccc2n1` [Example 113, 5-(5-methyl-1-(quinolin-2-ylmethyl)-1H-1,2,4-triazol-3-yl)-3-(4-(trifluoromethoxy)phenyl)-1,2,4-oxadiazole], the IC50 is less than 100 nM.

On to `Cc1nc(-c2nc(-c3ccc(OC(F)(F)F)cc3)no2)nn1Cc1ccc2c(c1)nnn2C` [Example 114, 5-(5-methyl-1-((1-methyl-1H-benzo[d][1,2,3]triazol-5-yl)methyl)-1H-1,2,4-triazol-3-yl)-3-(4-(trifluoromethoxy)phenyl)-1,2,4-oxadiazole], for which the half-inhibitory concentration (IC50) lay in the range of 100 to 1000 nM.

With `COc1nccc(Cn2nc(-c3nc(-c4ccc(OC(F)(F)F)cc4)no3)nc2C)n1` [Example 115, 5-(1-((2-methoxypyrimidin-4-yl)methyl)-5-methyl-1H-1,2,4-triazol-3-yl)-3-(4-(trifluoromethoxy)phenyl)-1,2,4-oxadizole], the 50% inhibitory concentration (IC50) is 1000 to 10000 nM.

Consider `Cc1nc(-c2noc(-c3ccc(C(C)(C)C)cc3)n2)nn1Cc1cccc(N2CCN(C)CC2)c1` [Example 116, 5-(4-(tert-butyl)phenyl)-3-(5-methyl-1-(3-(4-methylpiperazin-1-yl)benzyl)-1H-1,2,4-triazol-3-yl)-1,2,4-oxadiazole], for which the half-maximal inhibitory concentration (IC50) is less than 100 nM.

For `COCCCNc1nccc(Cn2nc(-c3nc(-c4ccc(OC(F)(F)F)cc4)no3)nc2C)n1` [Example 117, N-(3-methoxypropyl)-4-((5-methyl-3-(3-(4-(trifluoromethoxy)phenyl)-1,2,4-oxadiazol-5-yl)-1H-1,2,4-triazol-1-yl)methyl)pyrimidin-2-amine], the IC50 lay within 100 to 1000 nM.

Take `Cc1nc(-c2nc(-c3ccc(OC(F)(F)F)cc3)no2)nn1Cc1cccc(C(N)=O)c1` [Example 118, 3-((5-methyl-3-(3-(4-(trifluoromethoxy)phenyl)-1,2,4-oxadiazol-5-yl)-1H-1,2,4-triazol-1-yl)methyl)benzamide]: the IC50 was less than 100 nM.

Consider `Cc1nc(-c2nc(-c3ccc(OC(F)(F)F)cc3)no2)nn1Cc1cccc(C(=O)O)c1` [Example 119, 3-((5-methyl-3-(3-(4-(trifluoromethoxy)phenyl)-1,2,4-oxadiazol-5-yl)-1H-1,2,4-triazol-1-yl)methyl)benzoic acid], for which the half-inhibitory concentration (IC50) is 100 to 1000 nM.

As for `CNC(=O)c1cccc(Cn2nc(-c3nc(-c4ccc(OC(F)(F)F)cc4)no3)nc2C)c1` [Example 120, N-methyl-3-[(5-methyl-3-{3-[4-(trifluoromethoxy)phenyl]-1,2,4-oxadiazol-5-yl}-1H-1 2 4-triazol-1-yl)methyl]benzamide], the IC50 is less than 100 nM.

For the compound `Cc1nc(-c2nc(-c3ccc(OC(F)(F)F)cc3)no2)nn1Cc1ccnc(N2CCCC2)n1` [Example 121, 4-[(5-methyl-3-{3-[4-(trifluoromethoxy)phenyl]-1,2,4-oxadiazol-5-yl}-1H-1,2,4-triazol-1-yl)methyl]-2-(pyrrolidin-1-yl)pyrimidine], the IC50 lay within 100 to 1000 nM.

On to `Cc1nc(-c2nc(-c3ccc(OC(F)(F)F)cc3)no2)nn1Cc1cccc(C(=O)NC(C)C)c1` [Example 122, 3-[(5-methyl-3-{3-[4-(trifluoromethoxy)phenyl]-1,2,4-oxadiazol-5-yl}-1H-1,2,4-triazol-1-yl)methyl]-N-(propan-2-yl)benzamide], for which the 50% inhibitory concentration (IC50) was less than 100 nM.

Take `Cc1nc(-c2nc(-c3ccc(OC(F)(F)F)cc3)no2)nn1Cc1cccc(C(=O)N2CC(O)C2)c1` [Example 123, 1-{3-[(5-methyl-3-{3-[4-(trifluoromethoxy)phenyl]-1,2,4-oxadiazol-5-yl}-1H-1,2,4-triazol-1-yl)methyl]benzoyl}azetidin-3-ol]: the IC50 is less than 100 nM.

As to `Cc1nc(-c2nc(-c3ccc(OC(F)(F)F)cc3)no2)nn1Cc1cccc(C(=O)NC2CC2)c1` [Example 124, N-cyclopropyl-3-[(5-methyl-3-{3-[4-(trifluoromethoxy]phenyl]-1,2,4-oxadiazol-5-yl}-1H-1,2,4-triazol-1-yl)methyl]benzamide], the IC50 is less than 100 nM.

With `Cc1nc(-c2nc(-c3ccc(OC(F)(F)F)cc3)no2)nn1Cc1cccc(C(=O)NC(C)(C)CO)c1` [Example 125, N-(1-hydroxy-2-methylpropan-2-yl)-3-[(5-methyl-3-{3-[4-(trifluoromethoxy)phenyl]-1,2,4-oxadiazol-5-yl}-1H-1,2,4-triazol-1-yl)methyl]benzamide], the IC50 was less than 100 nM.

Regarding `Cc1nc(-c2nc(-c3ccc(OC(F)(F)F)cc3)no2)nn1Cc1cccc(OCCC(C)(C)O)c1` [Example 126, 2-methyl-4-{3-[(5-methyl-3-{3-[4-(trifluoromethoxy)phenyl]-1,2,4-oxadiazol-5-yl}-1H-1,2,4-triazol-1-yl)methyl]phenoxy}butan-2-ol], the concentration for half-maximal inhibition (IC50) is less than 100 nM.

Take `Cc1nc(-c2nc(-c3ccc(OC(F)(F)F)cc3)no2)nn1Cc1ccc(S(C)(=O)=O)cc1` [Example 127, 5-{1-[(4-methanesulfonylphenyl)methyl]-5-methyl-1H-1,2,4-triazol-3-yl}-3-[4-(trifluoromethoxy)phenyl]-1,2,4-oxadiazole]: the IC50 lay within 100 to 1000 nM.

As to `Cc1nc(-c2nc(-c3ccc(OC(F)(F)F)cc3)no2)nn1Cc1ccc(=O)n(CCN(C)C)c1` [Example 128, 1-[2-(dimethylamino)ethyl]-5-[(5-methyl-3-{3-[4-(trifluoromethoxy)phenyl]-1,2,4-oxadiazol-5-yl}-1H-1,2,4-triazol-1-yl)methyl]-1,2-dihydropyridin-2-one], the IC50 was in the range of 100 to 1000 nM.

Turning to `COCCCOc1ccc(Cn2nc(-c3nc(-c4ccc(OC(F)(F)F)cc4)no3)nc2C)cn1` [Example 129, 2-(3-methoxypropoxy)-5-[(5-methyl-3-{3-[4-(trifluoromethoxy)phenyl]-1,2,4-oxadiazol-5-yl}-1H-1,2,4-triazol-1-yl)methyl]pyridine], the IC50 lay within 100 to 1000 nM.

Take `Cc1nc(-c2nc(-c3ccc(OC(F)(F)F)cc3)no2)nn1Cc1cccc(S(=O)(=O)NC2CC2)c1` [Example 130, N-cyclopropyl-3-[(5-methyl-3-{3-[4-(trifluoromethoxy)phenyl]-1,2,4-oxadiazol-5-yl}-1H-1,2,4-triazol-1-yl)methyl]benzene-1-sulfonamide]: the IC50 was less than 100 nM.

As for `Cc1nc(-c2nc(-c3ccc(OC(F)(F)F)cc3)no2)nn1Cc1cccc(S(=O)(=O)NCCO)c1` [Example 131, 2-hydroxy-S-(3-[(5-methyl-3-{3-[4-(trifluoromethoxy)phenyl]-1,2,4-oxadiazol-5-yl}-1H-1,2,4-triazol-1-yl)methyl]phenyl}ethane-1-sulfonamido], the half-inhibitory concentration (IC50) is less than 100 nM.

For the compound `COC(=O)[C@@H](NS(=O)(=O)c1cccc(Cn2nc(-c3nc(-c4ccc(OC(F)(F)F)cc4)no3)nc2C)c1)C(C)C` [Example 132, methyl (2S)-3-methyl-2-{3-[(5-methyl-3-{3-[4-(trifluoromethoxy)phenyl]-1,2,4-oxadiazol-5-yl}-1H-1,2,4-triazol-1-yl)methyl]benzenesulfonamido}butanoate], the half-maximal inhibitory concentration (IC50) lay within 100 to 1000 nM.

In the case of `Cc1nc(-c2nc(-c3ccc(OC(F)(F)F)cc3)no2)nn1Cc1cccc(S(=O)(=O)N2CCCC2)c1` [Example 133, 5-(5-methyl-1-{[3-(pyrrolidine-1-sulfonyl)phenyl]methyl}-1H-1,2,4-triazol-3-yl)-3-[4-(trifluoromethoxy)phenyl]-1,2,4-oxadiazole], the IC50 was less than 100 nM.

As to `COC(=O)CNS(=O)(=O)c1cccc(Cn2nc(-c3nc(-c4ccc(OC(F)(F)F)cc4)no3)nc2C)c1` [Example 134, methyl 2-{3-[(5-methyl-3-{3-[4-(trifluoromethoxy)phenyl]-1,2,4-oxadiazol-5-yl}-1H-1,2,4-triazol-1-yl)methyl]benzenesulfonamido}acetate], the half-maximal inhibitory concentration (IC50) is less than 100 nM.

On to `COc1cc(Cn2nc(-c3nc(-c4ccc(OC(F)(F)F)cc4)no3)nc2C)ccn1` [Example 135, 2-methoxy-4-[(5-methyl-3-{3-[4-(trifluoromethoxy)phenyl]-1,2,4-oxadiazol-5-yl}-1H-1,2,4-triazol-1-yl)methyl]pyridine], for which the IC50 is 100 to 1000 nM.

Take `CNS(=O)(=O)c1cccc(Cn2nc(-c3nc(-c4ccc(OC(F)(F)F)cc4)no3)nc2C)c1` [Example 136, N-methyl-3-[(5-methyl-3-{3-[4-(trifluoromethoxy)phenyl]-1,2,4-oxadiazol-5-yl}-1H-1,2,4-triazol-1-yl)methyl]benzene-1-sulfonamide]: the IC50 was less than 100 nM.

As to `CCCNS(=O)(=O)c1cccc(Cn2nc(-c3nc(-c4ccc(OC(F)(F)F)cc4)no3)nc2C)c1` [Example 137, 3-[(5-methyl-3-{3-[4-(trifluoromethoxy)phenyl]-1,2,4-oxadiazol-5-yl}-1H-1,2,4-triazol-1-yl)methyl]-N-propylbenzene-1-sulfonamide], the concentration for half-maximal inhibition (IC50) is less than 100 nM.

In the case of `Cc1nc(-c2nc(-c3ccc(OC(F)(F)F)cc3)no2)nn1Cc1cccc(S(=O)(=O)NCC(C)(C)O)c1` [Example 138, 2-hydroxy-2-methyl-S-{3-[(5-methyl-3-{3-[4-(trifluoromethoxy)phenyl]-1,2,4-oxadiazol-5-yl}-1H-1,2,4-triazol-1-yl)methyl]phenyl}propane-1-sulfonamido], the half-maximal inhibitory concentration (IC50) was less than 100 nM.

Consider `Cc1nc(-c2nc(-c3ccc(OC(F)(F)F)cc3)no2)nn1Cc1cccc(S(=O)(=O)NCC(N)=O)c1` [Example 139, 2-{3-[(5-methyl-3-{3-[4-(trifluoromethoxy)phenyl]-1,2,4-oxadiazol-5-yl}-1H-1,2,4-triazol-1-yl)methyl]benzenesulfonamido}acetamide], for which the IC50 is 100 to 1000 nM.

As for `COCCCn1cc(Cn2nc(-c3nc(-c4ccc(OC(F)(F)F)cc4)no3)nc2C)ccc1=O` [Example 140, 1-(3-methoxypropyl)-5-[(5-methyl-3-{3-[4-(trifluoromethoxy)phenyl]-1,2,4-oxadiazol-5-yl}-1H-1,2,4-triazol-1-yl)methyl]-1,2-dihydropyridin-2-one], the half-inhibitory concentration (IC50) lay in the range of 100 to 1000 nM.
